Among the test systems are MDA-N; NCI-H522 lung; MALME-3M melanoma; BT-549 breast; SN12C renal; SW-620 colon; U251 CNS; COLO 205 colon; NCI-H460 lung; HCT-15 colon.
What all share (experiment): DTP human tumour cell line panel, 48 h

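Cells were grown in 96-well plates and exposed to each compound for 48 hours at five concentrations; endpoints were interpolated linearly between bracketing concentrations, or set to the highest concentration if not reached. Definition used: TGI = concentration required for complete inhibition of growth.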

Consider `CCOC(=O)/C=C1\C[C@H](NC(=O)OCc2ccccc2)C(=O)N1CC(=O)OCC`, for which the TGI in the assay with MDA-N, in the assay with NCI-H522 lung, in the assay with MALME-3M melanoma, with BT-549 breast, in the assay on SN12C renal and in the assay on SW-620 colon was greater than 100 µM in each case. In addition, the TGI in the assay with U251 CNS, in the assay with COLO 205 colon, in the assay on NCI-H460 lung and with HCT-15 colon was greater than 100 µM in each case.

Regarding `NC1=CN(Cc2ccccc2)C2=N/C(=C\c3ccco3)C(=O)N12`, the TGI with MDA-N, in the assay with NCI-H522 lung, in the assay on MALME-3M melanoma, in the assay with BT-549 breast, with SN12C renal and in the assay with SW-620 colon was greater than 100 µM throughout. The TGI with U251 CNS, with COLO 205 colon, with NCI-H460 lung and in the assay with HCT-15 colon was greater than 100 µM throughout.

`COC(=O)c1ccccc1Nc1ccccc1C(=O)OC`: the TGI (commonly the concentration giving total growth inhibition) is greater than 100 µM with MDA-N; greater than 100 µM in the assay with NCI-H522 lung; 96.8 µM with MALME-3M melanoma; greater than 100 µM in the assay on BT-549 breast; greater than 100 µM in the assay with SN12C renal; greater than 100 µM in the assay with SW-620 colon. Moreover, the TGI in the assay with U251 CNS, in the assay with COLO 205 colon, with NCI-H460 lung and in the assay on HCT-15 colon was greater than 100 µM throughout.

In the case of `O[C@H]1[C@@H]2OC[C@@H](O)[C@H](OCc3ccccc3)[C@@](COCc3ccccc3)(O2)[C@@H]1OCc1ccccc1`, the TGI with MDA-N came out at 29.4 µM; with NCI-H522 lung, 27.7 µM; in the assay on MALME-3M melanoma, 28.6 µM; with BT-549 breast, 32.2 µM; in the assay on SN12C renal, 27.9 µM; in the assay with SW-620 colon, 33.1 µM. Further, the TGI in the assay on U251 CNS amounted to 30.4 µM; in the assay with COLO 205 colon it was 32.8 µM; in the assay with NCI-H460 lung it was 53.8 µM; with HCT-15 colon, 30.9 µM.

Take `O=c1cc(-c2cccc(Br)c2)[nH]c2cc3c(cc12)OCO3`: the TGI in the assay with MDA-N was 2 µM; with NCI-H522 lung it was 18.3 µM; in the assay on MALME-3M melanoma, 17.2 µM; in the assay with BT-549 breast, 14.4 µM; in the assay with SN12C renal, greater than 55.9 µM; in the assay on SW-620 colon, greater than 100 µM. For the same compound, the TGI in the assay with U251 CNS is 11.4 µM; in the assay on COLO 205 colon, greater than 100 µM; in the assay with NCI-H460 lung it was 24.8 µM; with HCT-15 colon it was greater than 77.6 µM.

On to `CC(C)C(=O)CP(=O)(O)O`, for which the TGI in the assay with MDA-N, with NCI-H522 lung, with MALME-3M melanoma, with BT-549 breast, with SN12C renal and in the assay with SW-620 colon was greater than 100 µM in each case. Besides, the TGI with U251 CNS, in the assay with COLO 205 colon, in the assay with NCI-H460 lung and in the assay on HCT-15 colon was greater than 100 µM throughout.

Take `CC(=O)Nc1ccc2c3c(cc(O)c2c1)N(C(=O)CCCCCC(=O)Nc1ccc2c4c(cc(O)c2c1)N(C(=O)OC(C)(C)C)CC4CCl)CC3CCl` (stereo not given): the TGI with MDA-N is 3.56 µM; in the assay on NCI-H522 lung it was 5.78 µM; in the assay with MALME-3M melanoma, 8.98 µM; in the assay with BT-549 breast, 10.9 µM; with SN12C renal, greater than 38.3 µM; with SW-620 colon, greater than 100 µM. Also, the TGI is 6.75 µM in the assay with U251 CNS, 9.88 µM in the assay on COLO 205 colon, greater than 21.2 µM in the assay with NCI-H460 lung and greater than 100 µM in the assay on HCT-15 colon.

As for `CCO/N=C(/CC)c1ccc(Br)s1`, the TGI in the assay on MDA-N, in the assay with NCI-H522 lung, with MALME-3M melanoma, in the assay on BT-549 breast, in the assay with SN12C renal and in the assay on SW-620 colon was greater than 100 µM each time. For the same compound, the TGI in the assay with U251 CNS, with COLO 205 colon, in the assay with NCI-H460 lung and with HCT-15 colon was greater than 100 µM throughout.

As for `Cc1ccc2c(c1)C/C(=C\c1ccccc1C(=O)O)C2=O`, the TGI in the assay with MDA-N, in the assay on NCI-H522 lung, in the assay on MALME-3M melanoma, with BT-549 breast, in the assay with SN12C renal and in the assay on SW-620 colon was greater than 100 µM in each case. Further, the total growth inhibition concentration (TGI) in the assay with U251 CNS, in the assay with COLO 205 colon, in the assay with NCI-H460 lung and in the assay on HCT-15 colon was greater than 100 µM throughout.

Consider `Cc1cccc2c(=O)c3c(O)cc4c(c3n(C)c12)C=CC(C)(C)O4`, for which the TGI with MDA-N, in the assay with NCI-H522 lung, with MALME-3M melanoma, in the assay on BT-549 breast, in the assay on SN12C renal and in the assay on SW-620 colon was greater than 100 µM in each case. Besides, the TGI in the assay with U251 CNS, in the assay with COLO 205 colon, in the assay on NCI-H460 lung and in the assay with HCT-15 colon was greater than 100 µM in each case.

In the case of `CCCCn1c2c(n(CCCC)c1=[Se])-c1c(n(CCCC)c(=[Se])n1CCCC)S[Se][Se]S2`, the TGI in the assay with MDA-N was greater than 100 µM; with NCI-H522 lung, 3.34 µM; in the assay on MALME-3M melanoma, 15.4 µM; in the assay with BT-549 breast, greater than 92.5 µM; with SN12C renal, 65 µM; with SW-620 colon, 19.6 µM. Also, the TGI with U251 CNS worked out at 32.2 µM; in the assay with COLO 205 colon, 39.4 µM; with NCI-H460 lung, 29 µM; in the assay on HCT-15 colon it was 27.9 µM.

`CC(=O)NC1=CC(=O)C=C(Cl)C1=O`: the TGI with MDA-N is 31 µM; with NCI-H522 lung, 84 µM; in the assay on MALME-3M melanoma, 66 µM; with BT-549 breast, greater than 100 µM; with SN12C renal it was greater than 100 µM; in the assay with SW-620 colon, 37 µM. Moreover, the TGI with U251 CNS, in the assay with COLO 205 colon, in the assay with NCI-H460 lung and in the assay with HCT-15 colon was greater than 100 µM in each case.

On to `O=c1c2cc([N+](=O)[O-])cnc2sn1-c1ccc(Br)cc1`, for which the TGI was greater than 100 µM with MDA-N; 22.6 µM with NCI-H522 lung; 57 µM with MALME-3M melanoma; greater than 100 µM in the assay with BT-549 breast; greater than 100 µM in the assay on SN12C renal; greater than 100 µM with SW-620 colon. Also, the TGI with U251 CNS, in the assay with COLO 205 colon, in the assay with NCI-H460 lung and with HCT-15 colon was greater than 100 µM each time.

Values taken from PubChem BioAssay (NCI).
